Data reported in patent publication US20020148008A1, “Gene which regulates the dormancy of wheat seed” (priority 2000, published 2002).

Key:
Test in all cases: Abscisic acid-sensitivity of seed embryo (seeds cut in halves, sprouting and sprout stretching)
Assay type in all cases: in vivo
[1] = system: Minaminokomugi wheat seeds (strong dormancy)
Procedure: (§1) Next, seeds obtained from 3 varieties Minaminokomugi, Sanin 1 and Tozan 18) and seeds in which dormancy has been disrupted (Minaminokomugi, Sanin 1) were soaked individually in 5% (W/V) Benlate T(DuPont, USA) for 10 minutes, then sterilized by washing with distilled water. The grains of these wheat seeds were cut in halves to be laid in pet dish. A section where 8 mL of abscisic acid (ABA) solution was added and a section where 8 mL of distilled water was added were produced for each seed, followed by culturing at 22° C. for 6 days to determine the sprouting rate and the degree of sprout stretching.

[2] = system: Minaminokomugi wheat seeds (the dormancy has been disrupted)
Procedure: as §1

[3] = system: Sanin 1 wheat seeds (the dormancy has been disrupted)
Procedure: as §1

[4] = system: Sanin 1 wheat seeds (weak dormancy)
Procedure: as §1

[5] = system: Tozan 18 wheat seeds (weak dormancy)
Procedure: as §1

`CC1=CC(=O)CC(C)(C)[C@@]1(O)/C=C/C(C)=C\C(=O)O` [ABA, abscisic acid] was tested, and the “Sprouting Rate (%)” value ([1]; Minaminokomugi, seeds cut in halves, + 10 μM ABA, 22° C., 6 days) was 0%, the abscisic acid-sensitivity ([1]; seed of Minaminokomugi with strong dormancy) was “strong abscisic acid-sensitivity” and the “Sprouting Rate (%)” value ([2]; Minaminokomugi (dormancy disrupted), seeds cut in halves, + 10 μM ABA, 22° C., 6 days) was 70%. The abscisic acid-sensitivity ([2]; seeds of Minaminokomugi in which dormancy has been disrupted) was “weak abscisic acid-sensitivity or insensitivity”, the “Sprouting Rate (%)” value ([3]; Sanin 1 (dormancy disrupted), seeds cut in halves, + 10 μM ABA, 22° C., 6 days) was 100% and the abscisic acid-sensitivity ([3]; seeds of Sanin 1 in which dormancy has been disrupted) was “weak abscisic acid-sensitivity or insensitivity”. The “Sprouting Rate (%)” value ([4]; Sanin 1, seeds cut in halves, + 10 μM ABA, 22° C., 6 days) was 100%, the abscisic acid-sensitivity ([4]; seeds of Sanin 1 with weak dormancy) was “weak abscisic acid-sensitivity or insensitivity” and the “Sprouting Rate (%)” value ([5]; Tozan 18, seeds cut in halves, + 10 μM ABA, 22° C., 6 days) was 100%. The abscisic acid-sensitivity ([5]; seeds of Tozan 18 with weak dormancy) was “weak abscisic acid-sensitivity or insensitivity”.
